According to paper PMC4893642 (Theranostics, 2016):
Values joined by “and” are separate entries in the source; they are usually repeats but may differ in a detail not shown here. Equal entries are not always repeated.

Assays:
MAGL = biological target: T1, MAGL (Rattus norvegicus, UniProt Q8R431); details: 30 min i.v. before injection
T1 sequence (Q8R431 1-303): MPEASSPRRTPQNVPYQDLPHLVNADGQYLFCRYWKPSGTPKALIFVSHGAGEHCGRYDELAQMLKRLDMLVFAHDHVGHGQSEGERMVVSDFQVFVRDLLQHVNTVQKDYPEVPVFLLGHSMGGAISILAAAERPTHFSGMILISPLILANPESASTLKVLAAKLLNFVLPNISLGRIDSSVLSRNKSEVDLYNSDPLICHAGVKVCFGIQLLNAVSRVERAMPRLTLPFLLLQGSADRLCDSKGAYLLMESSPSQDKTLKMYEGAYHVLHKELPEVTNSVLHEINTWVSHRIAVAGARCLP

CB1 receptors = CB1 receptors (Homo sapiens, UniProt P21554); test: CB1 agonist/antagonist test; type: cell-based; details: at concentrations up to 30 µM
Chain of CB1 receptors (P21554 whole entry): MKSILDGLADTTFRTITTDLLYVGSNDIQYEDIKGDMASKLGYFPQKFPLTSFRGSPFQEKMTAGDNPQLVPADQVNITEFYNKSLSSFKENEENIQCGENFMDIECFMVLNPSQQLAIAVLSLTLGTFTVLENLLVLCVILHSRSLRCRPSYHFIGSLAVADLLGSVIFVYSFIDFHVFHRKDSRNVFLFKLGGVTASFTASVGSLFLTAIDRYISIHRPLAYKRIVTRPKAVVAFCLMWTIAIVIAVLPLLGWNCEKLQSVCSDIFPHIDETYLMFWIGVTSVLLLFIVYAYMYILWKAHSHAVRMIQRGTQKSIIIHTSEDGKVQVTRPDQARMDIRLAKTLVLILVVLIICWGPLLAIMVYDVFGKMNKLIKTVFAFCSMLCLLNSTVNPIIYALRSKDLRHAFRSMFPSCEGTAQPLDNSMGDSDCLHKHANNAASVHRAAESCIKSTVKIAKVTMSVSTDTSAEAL

CB2 receptors = CB2 receptors (Homo sapiens, UniProt P34972); test: CB2 agonist/antagonist test; type: cell-based; details: at concentrations up to 30 µM
Chain of CB2 receptors (P34972 whole entry): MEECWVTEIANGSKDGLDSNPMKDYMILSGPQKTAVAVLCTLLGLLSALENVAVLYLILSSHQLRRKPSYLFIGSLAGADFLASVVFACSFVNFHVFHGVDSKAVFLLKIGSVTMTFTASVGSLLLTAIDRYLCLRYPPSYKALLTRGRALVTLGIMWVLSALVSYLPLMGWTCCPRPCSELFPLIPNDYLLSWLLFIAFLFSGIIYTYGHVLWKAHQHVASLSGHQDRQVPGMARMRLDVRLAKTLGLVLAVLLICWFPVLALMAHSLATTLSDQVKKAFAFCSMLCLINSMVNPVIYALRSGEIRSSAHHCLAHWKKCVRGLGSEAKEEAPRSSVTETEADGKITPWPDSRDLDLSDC

[1] = Ex vivo whole body biodistribution in mice
FAAH = biological target: T2, FAAH (Homo sapiens, UniProt O00519); test: In vitro FAAH inhibition enzyme assay; type: biochemical; details: read-out: inhibition of FAAH enzyme
T2 sequence (O00519 1-579): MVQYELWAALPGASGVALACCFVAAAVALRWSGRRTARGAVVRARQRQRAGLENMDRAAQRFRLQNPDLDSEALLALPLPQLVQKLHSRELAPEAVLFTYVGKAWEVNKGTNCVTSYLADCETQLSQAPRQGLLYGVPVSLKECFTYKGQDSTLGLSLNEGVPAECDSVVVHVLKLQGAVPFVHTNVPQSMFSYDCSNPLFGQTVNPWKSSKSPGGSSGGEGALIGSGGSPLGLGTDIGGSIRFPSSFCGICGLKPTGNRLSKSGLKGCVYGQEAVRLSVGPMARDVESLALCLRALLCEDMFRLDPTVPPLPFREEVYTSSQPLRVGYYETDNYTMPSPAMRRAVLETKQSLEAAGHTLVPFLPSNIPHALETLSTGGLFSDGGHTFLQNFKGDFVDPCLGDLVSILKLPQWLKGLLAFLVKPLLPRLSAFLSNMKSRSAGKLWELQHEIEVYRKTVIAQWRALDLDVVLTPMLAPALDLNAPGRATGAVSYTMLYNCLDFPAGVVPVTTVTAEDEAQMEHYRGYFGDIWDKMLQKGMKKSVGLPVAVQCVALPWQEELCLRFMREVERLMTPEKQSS

human recombinant MAGL = biological target: T3, human recombinant MAGL (Homo sapiens, UniProt Q99685); test: In vitro MAGL inhibition enzyme assay; type: biochemical; details: 4-nitrophenylacetate substrate
T3 sequence (Q99685 1-303): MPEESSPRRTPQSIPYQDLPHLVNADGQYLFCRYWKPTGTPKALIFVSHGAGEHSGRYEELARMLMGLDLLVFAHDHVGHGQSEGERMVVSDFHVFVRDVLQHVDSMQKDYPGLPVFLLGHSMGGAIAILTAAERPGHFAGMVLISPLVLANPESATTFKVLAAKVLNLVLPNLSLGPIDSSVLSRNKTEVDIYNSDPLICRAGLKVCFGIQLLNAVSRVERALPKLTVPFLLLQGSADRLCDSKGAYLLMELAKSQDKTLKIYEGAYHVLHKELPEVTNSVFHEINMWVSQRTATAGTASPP

Row | uptake in the liver, kidneys and small intestine [1] | reduction of [11C]5f uptake in cerebellum by pretreatment (MAGL; rat, blocker 1 mg/kg) [%] | reduction of [11C]5f uptake in cerebral cortex by pretreatment (MAGL; rat, blocker 1 mg/kg) [%] | reduction of [11C]5f whole brain uptake by pretreatment (MAGL; rat, blocker 1 mg/kg) [%] | inhibition at 0.5 µM (FAAH) [%] | IC50 (human recombinant MAGL) | Structure (SMILES) | effect on [11C]SAR127303 uptake and distribution in rat brain (MAGL; blocker 3 mg/kg) | CB1 receptor agonism or antagonism (CB1 receptors) | CB2 receptor agonism or antagonism (CB2 receptors)
1 |  |  |  |  |  |  | NC(=O)c1cccc(-c2cccc(OC(=O)NC3CCCCC3)c2)c1 [URB597, reference compound] | no effect on the uptake and distribution in rat brain |  | 
2 | High uptake | 53 | 42 | 48 | 75 | 39.3 nM and 35.9 nM | O=C(N1CCC(CNS(=O)(=O)c2ccc(Cl)cc2)CC1)n1cncn1 [Compound 5f, N-((1-(1H-1,2,4-triazole-1-carbonyl)piperidin-4-yl)methyl)-4-chlorobenzenesulfonamide] |  | No significant CB1 and CB2 receptors agonism or antagonism | No significant CB1 and CB2 receptors agonism or antagonism
3 | High uptake |  |  |  |  |  | O=C(OC(C(F)(F)F)C(F)(F)F)N1CCC(CNS(=O)(=O)c2ccc(Cl)cc2)CC1 [Compound 5a, 1,1,1,3,3,3-hexafluoropropan-2-yl 4-(((4-chlorophenyl)sulfonamido)methyl)piperidine-1-carboxylate] |  | No significant CB1 and CB2 receptors agonism or antagonism | No significant CB1 and CB2 receptors agonism or antagonism
